Legend:
DNMT1 [1] = target: T1, DNMT1 (Homo sapiens, UniProt P26358); assay: biochemical DNMT activity quantification kit (Abcam), three […] pure preparations, n = […]
DNMT1 [2] = target: T1, DNMT1; assay: scintillation proximity methylation assay (SPA) screen with purified DNMT1; IC50 in Supplementary Figure S1A; type: biochemical; design: full-length recombinant human DNMT1

T1 sequence (P26358 whole entry): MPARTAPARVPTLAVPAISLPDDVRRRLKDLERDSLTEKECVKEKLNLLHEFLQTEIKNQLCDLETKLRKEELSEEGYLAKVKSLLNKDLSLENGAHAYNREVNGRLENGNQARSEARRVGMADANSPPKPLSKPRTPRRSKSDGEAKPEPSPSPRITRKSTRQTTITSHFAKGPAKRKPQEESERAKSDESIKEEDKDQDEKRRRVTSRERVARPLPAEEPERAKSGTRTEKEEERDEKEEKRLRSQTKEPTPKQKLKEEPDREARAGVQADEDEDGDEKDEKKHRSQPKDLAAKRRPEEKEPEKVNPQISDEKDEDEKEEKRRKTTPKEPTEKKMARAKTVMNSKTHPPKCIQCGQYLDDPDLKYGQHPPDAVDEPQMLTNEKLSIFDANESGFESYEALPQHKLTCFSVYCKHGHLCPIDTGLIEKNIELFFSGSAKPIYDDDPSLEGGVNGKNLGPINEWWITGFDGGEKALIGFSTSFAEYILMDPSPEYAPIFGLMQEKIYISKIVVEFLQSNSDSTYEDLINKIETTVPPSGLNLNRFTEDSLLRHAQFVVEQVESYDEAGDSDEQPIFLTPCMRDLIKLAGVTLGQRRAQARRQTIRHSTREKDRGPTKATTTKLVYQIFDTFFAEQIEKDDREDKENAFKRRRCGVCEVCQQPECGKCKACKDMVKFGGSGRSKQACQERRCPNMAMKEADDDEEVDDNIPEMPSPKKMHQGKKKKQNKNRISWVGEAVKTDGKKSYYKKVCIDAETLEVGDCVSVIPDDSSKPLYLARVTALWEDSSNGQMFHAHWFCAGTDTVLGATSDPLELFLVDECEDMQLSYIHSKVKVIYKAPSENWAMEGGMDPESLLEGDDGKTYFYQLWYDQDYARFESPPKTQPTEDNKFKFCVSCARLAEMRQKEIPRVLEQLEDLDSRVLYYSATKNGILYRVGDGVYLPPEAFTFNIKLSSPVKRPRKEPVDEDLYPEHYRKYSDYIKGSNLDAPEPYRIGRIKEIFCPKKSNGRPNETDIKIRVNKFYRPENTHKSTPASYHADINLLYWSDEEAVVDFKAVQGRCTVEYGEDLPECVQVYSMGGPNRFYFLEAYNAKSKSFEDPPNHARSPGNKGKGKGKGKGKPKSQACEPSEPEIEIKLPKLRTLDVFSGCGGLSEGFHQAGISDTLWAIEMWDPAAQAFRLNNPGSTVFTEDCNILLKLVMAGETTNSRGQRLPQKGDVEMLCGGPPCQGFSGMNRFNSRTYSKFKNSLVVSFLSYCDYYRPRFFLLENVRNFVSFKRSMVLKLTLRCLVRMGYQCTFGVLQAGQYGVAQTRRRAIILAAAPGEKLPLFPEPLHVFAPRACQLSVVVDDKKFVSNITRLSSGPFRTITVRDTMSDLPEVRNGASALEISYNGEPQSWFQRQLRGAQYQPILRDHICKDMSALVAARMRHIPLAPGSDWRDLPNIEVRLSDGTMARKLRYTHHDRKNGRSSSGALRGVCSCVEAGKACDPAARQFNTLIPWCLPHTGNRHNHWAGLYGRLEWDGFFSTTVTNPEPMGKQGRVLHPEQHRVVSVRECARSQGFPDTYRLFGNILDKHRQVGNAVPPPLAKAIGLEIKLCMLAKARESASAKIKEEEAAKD

Row | SMILES | biochemical DNMT activity quantification kit (Abcam), three >95% pure preparatio (DNMT1 [1]) | IC50 (DNMT1 [2]) [µM]
1 | O=C1c2c(O)cc(O)cc2O[C@H](c2cc(O)c(O)c(O)c2)[C@H]1O [DHM, 3,3′,4′,5,5’,7-hexahydroxy-2,3-dihydroflavanonol] | DNMT1 inhibitory activity for DHM in the similar concentration range like myricetin (Figure 1D; Supplementary Figure S1B) | 
2 | O=c1c(O)c(-c2cc(O)c(O)c(O)c2)oc2cc(O)cc(O)c12 [Myr, myricetin] |  | 43.4
